# Measurements published in patent publication US20260130894A1, “COMPOSITION COMPRISING ISOQUINOLINE DERIVATIVE AS ACTIVE INGREDIENT FOR PREVENTION OR TREATMENT OF PARKINSON'S DISEASE” (ALTMEDICAL CO., LTD., priority 2022, published 2026).
# Experiments:
# BEAS-2B cell line [1] = assay: Mitophagy activity in BEAS-2B cells expressing mt-Keima (FACS, confocal microscope, mito-YFP); assay type: cell-based, human
# Procedure: To analyze the mitophagy-promoting activity effect of the CD1-012 synthesized in the Example 1, the BEAS-2B cell line, which is a human normal lung cell line, was induced to express the mt-Keima fluorescent protein. Following this, the CD1-012 (15 μM) and the compound of Comparative Example 1, CCCP (10 μM), were treated for 24 hours. After the treatment, the mitophagy activity of each sample was measured, and the results were represented in FIGS. 1A to 1C.
# Specifically, FIG. 1A represents the analysis results using flow cytometry (FACS) (treatment of CD1-012 at 15 μM for 24 hours), FIG. 1B represents the analysis results using a confocal microscope (treatment of CD1-012 at 15 μM for 18 hours), and FIG. 1C represents the measurement results of the quantitative changes in the mitochondria using a fluorescent protein, mito-YFP, which includes a targeting sequence to transport protein to the mitochondria (treatment of CD1-012 at 20 μM for 24 hours).
# It was confirmed whether CD1-012 synthesized in Example 1 promotes mitophagy activity in a concentration- and time-dependent manner. To this end, the CD1-012 was treated at various concentrations or at a fixed concentration (15 μM) for different treatment durations in the BEAS-2B cell line expressing mt-Keima, and mitophagy activity was measured using a flow cytometer.
# (§1) It was confirmed whether CD1-012 synthesized in Example 1 specifically increases only mitophagy activity. To this end, the BEAS-2B cell line expressing mt-Keima was treated with CD1-012 (15 μM) or Comparative Example 1 (CCCP, 10 μM) for 18 hours, and mitophagy activity was analyzed using a confocal microscope. Additionally, to measure autophagy activity, the BEAS-2B cell line expressing Keima fluorescent protein was incubated in Hanks' balanced salt solution (HBSS) for 3 hours to induce a starvation condition (starv.), and the results were compared with samples treated with CD1-012 (15 μM) for 18 hours using a confocal microscope.
# To this end, the human normal lung cell line BEAS-2B, expressing mt-Keima fluorescent protein, was treated with CD1-012, Comparative Example 2 (palmatine), or Comparative Example 3 (berberine) at various concentrations, and the mitophagy-inducing activity of each sample was compared.
# SH-SY5Y cell line = assay: Mitophagy activity in SH-SY5Y cells expressing mt-Keima (FACS); assay type: cell-based, human; settings: FACS (FIG. 2A)
# Procedure: (§2) It was confirmed whether CD1-012 synthesized in Example 1 increases mitophagy activity in various cell lines. To this end, CD1-012 and Comparative Example 1 (CCCP) were treated in the SH-SY5Y cell line, a human neuroblastoma cell line expressing mt-Keima fluorescent protein, and in the HeLa-Parkin cell line, a HeLa cervical cancer cell line expressing Parkin (E3 ligase). Following this treatment, the mitophagy activity of each sample was analyzed using flow cytometry (FACS), and the results are shown in FIGS. 2A to 2B.
# HeLa-Parkin cell line = assay: Mitophagy activity in HeLa-Parkin cells (FACS); assay type: cell-based, human; settings: FACS (FIG. 2B)
# Procedure: as §2
# BEAS-2B cell line [2] = assay: Autophagy activity in BEAS-2B cells expressing Keima (confocal microscope); assay type: cell-based, human; settings: 15 μM, 18 hours (FIG. 4B)
# Procedure: as §1
# [3] = test system: mitochondrial membrane potential; assay: Mitochondrial membrane potential, TMRM assay; assay type: cell-based; settings: CD1-012 10 μM or 15 μM, CCCP 10 μM, 24 hours (FIG. 6)
# Procedure: (§3) It was confirmed whether the isoquinoline derivative according to the present invention induces mitochondrial dysfunction, similar to CCCP. To this end, the CD1-012 (10 μM or 15 μM) and CCCP (10 μM) were treated for 24 hours, and the mitochondrial membrane potential and mitochondrial reactive oxygen species (ROS) levels in each sample were analyzed. Mitochondrial membrane potential was analyzed using the TMRM (tetramethylrhodamine methyl ester) assay, and mitochondrial ROS levels were analyzed using the MitoSOX assay.
# [4] = test system: mitochondrial reactive oxygen species (ROS); assay: Mitochondrial reactive oxygen species, MitoSOX assay; assay type: cell-based; settings: CD1-012 10 μM or 15 μM, CCCP 10 μM, 24 hours (FIG. 6)
# Procedure: as §3
# [5] = test system: wild type (WT) and PINK1-deficient (PINK1−/−) mouse embryonic fibroblasts (MEFs); assay: Mitochondrial protein Cox2 level by western blotting in WT and PINK1-deficient MEFs; assay type: cell-based; settings: 40 μM, 24 hours (FIG. 8A)
# PINK1-deficient MEFs = assay: Mitochondrial function in PINK1-deficient MEFs (TMRM, MitoSOX-Red, ATP production); assay type: cell-based, mouse; settings: 40 μM for 24 hours
# Procedure: Subsequently, PINK1-deficient MEFs were treated with CD1-012 at a concentration of 40 μM for 24 hours, and 4 days later, mitochondrial function as analyzed. The mitochondrial membrane potential was analyzed by the tetramethyl rhodamine methyl ester (TMRM) assay, and mitochondrial ROS was analyzed using the MitoSOX-Red assay. […] Conversely, the level of mitochondrial ROS, which was elevated compared to the wild-type cells, was reduced by CD1-012 treatment (FIG. 8D).
# [6] = test system: human nerve cell line H-SY5Y; assay: Mitochondrial function in sporadic Parkinson's disease cell model (MPP+ or 6-OHDA); assay type: cell-based; settings: CD1-012 20 μM one day
# Procedure: Sporadic Parkinson's disease has progressive motor/non-motor dysfunction symptoms, and most patients with Parkinson's disease have this disease. In this example, the therapeutic effect of CD1-012 on sporadic Parkinson's disease was confirmed. To this end, after a sporadic Parkinson's disease cell model was manufactured by treating a human nerve cell line H-SY5Y with the neurotoxins MPP+(62.5 μM) and 6-OHDA (40 μM) for two days, the cell model was treated with CD1-012 (20 μM) for one day and then the membrane potential and ATP production capacity of mitochondria were analyzed after two days.
# [7] = test system: mouse model of Parkinson's disease established by injecting MPTP; assay: Motor performance (pole test, Rota-rod test) in MPTP mouse model of Parkinson's disease; assay type: in vivo
# Procedure: In this example, the effect of the compound of the present invention (CD1-012) on treating Parkinson's disease was confirmed using a mouse model of Parkinson's disease. To this end, a mouse model of Parkinson's disease established by injecting the neurotoxin, 1-methyl-4-phenyl-1,2,3,6-tetrahydropyridine (MPTP), was used. After nasal administration of CD1-012 at a concentration of 1 mg/kg daily for 2 weeks to the mouse model, motor performance was analyzed using the pole test and Rota-rod test (FIG. 11A).
compound,measurement,setting,value
"Oc1cc2c(cc1O)-c1cc3ccc(O)c(O)c3c[n+]1CC2 [CD1-012, 2,3,9,10-tetrahydroxy-5,6-dihydroisoquinolino[3,2-a]isoquinolin-7-ium bromide]",treatment time after which mitophagy activity began to significantly increase,BEAS-2B cell line [1]; 15 μM (FIG. 3B),3 h
same,treatment time at which mitophagy activity reached its maximum level,BEAS-2B cell line [1]; 15 μM (FIG. 3B),18 h
same,concentration at which mitophagy activity reached a level comparable to the maximum of palmatine and berberine,BEAS-2B cell line [1]; BEAS-2B mt-Keima (FIG. 5),10 µM
same,mitophagy-inducing activity relative to berberine,BEAS-2B cell line [1]; BEAS-2B mt-Keima (FIG. 5),approximately 8 times
same,mitophagy-inducing activity relative to palmatine,BEAS-2B cell line [1]; BEAS-2B mt-Keima (FIG. 5),approximately 40 times
same,concentration at which mitophagy activity began to significantly increase compared to untreated control,"BEAS-2B cell line [1]; BEAS-2B mt-Keima, flow cytometer (FIG. 3A)",≥ 7.5 µM
same,mitophagy activity compared to the untreated control group (Con),"BEAS-2B cell line [1]; BEAS-2B mt-Keima, 15 μM 24 h (FACS), 15 μM 18 h (confocal), 20 μM 24 h (mito-YFP)",significant increase in mitophagy activity
same,mitophagy-promoting effect compared with CCCP (confocal microscope),"BEAS-2B cell line [1]; CD1-012 15 μM, CCCP 10 μM, 18 hours (FIG. 4A)",mitophagy-promoting effects similar to those observed in the CCCP-treated sample
same,mitophagy activity compared with CCCP-treated sample (FIG. 1A),"BEAS-2B cell line [1]; FACS, CD1-012 15 μM, CCCP 10 μM, 24 hours","increased as significantly as that of the sample treated with the representative mitophagy promoting compound, CCCP"
same,concentration dependence of mitophagy activity,BEAS-2B cell line [1]; up to the maximum treatment concentration of 17.5 μM (FIG. 3A),continued to increase in a concentration-dependent manner
same,mitophagy activity compared to the control group (Con),SH-SY5Y cell line,significantly increased mitophagy activity
same,mitophagy activity compared to the control group (Con),HeLa-Parkin cell line,significantly increased mitophagy activity
same,autophagy activity compared to the untreated control group,BEAS-2B cell line [2],no significant difference in autophagy activity
same,mitochondrial membrane potential,[3],no decrease in mitochondrial membrane potential was observed
same,mitochondrial ROS levels,[4],no increase in mitochondrial ROS was detected
same,Cox2 protein level,[5],significantly decreased
same,mitochondrial ATP production (reduced in PINK1-deficient cells),PINK1-deficient MEFs; analyzed 4 days later (FIG. 8E),restored
same,level of mitochondrial ROS (elevated in PINK1-deficient cells),"PINK1-deficient MEFs; analyzed 4 days later, MitoSOX-Red (FIG. 8D)",reduced
same,mitochondrial membrane potential (decreased in PINK1-deficient cells),"PINK1-deficient MEFs; analyzed 4 days later, TMRM (FIG. 8C)",restored
same,mitochondrial membrane potential,"[6]; 6-OHDA (40 μM) model, analyzed after two days (FIG. 10B)",restored
same,ATP synthesis capacity of mitochondria,"[6]; 6-OHDA (40 μM) model, analyzed after two days (FIG. 10D)",significantly restored
same,mitochondrial membrane potential,"[6]; MPP+ (62.5 μM) model, analyzed after two days (FIG. 10A)",restored
same,ATP synthesis capacity of mitochondria,"[6]; MPP+ (62.5 μM) model, analyzed after two days (FIG. 10C)",significantly restored
same,"pole test, motor performance (time to reach the ground)","[7]; MPTP mice, nasal 1 mg/kg daily for 2 weeks (FIG. 11B)",recovered to a level equivalent to that of the normal control
same,"Rota-rod test, time spent on the cylinder","[7]; MPTP mice, nasal 1 mg/kg daily for 2 weeks (FIG. 11C)",markedly recovered
same,motor performance of normal mice administered CD1-012 alone compared to untreated normal control (toxicity),"[7]; normal mice, CD1-012 alone",no significant difference in motor performance
